Results reported in US20240425517A1, “NOVEL COMPOUND FOR DEGRADATION OF TARGET PROTEIN OR POLYPEPTIDE BY POLYUBIQUITINATION” (PRAZER THERAPEUTICS INC., priority 2021, published 2024).

Biological target: T1, BRD4 proteins (Homo sapiens, UniProt O60885)
T1 construct: endogenous in cells; host or cells: MM.1S
Assay: Degradation of BRD4 protein in MM.1S cell lines (Western blot densitometry)
Type: cell-based
Details: MM.1S cells, 10 μM, 24 hours
Procedure: To confirm that the compounds (BRD4 degraders) of Preparation Examples I′ to IV′ reduce the amount of BRD4 proteins, experiments were performed using MM.1S cell lines, which are B cells derived from the blood of multiple myeloma patients.
Specifically, the MM.1S cells were cultured in RPMI-1640 medium supplemented with 10% fetal bovine serum and Penicillin/Streptomycin (100 U/mL), transferred to a 6-well plate, and after 24 hours, the BRD4 degraders were diluted in the culture medium and the cells were treated with 10 μM each. After treatment, the cells were incubated in a C02 incubator for 24 hours. Through protein immunoblotting (Western Blot), the degrading capacity of each compound against BRD4 proteins in cells was confirmed. After cell culture was completed according to the experimental conditions, the cells were collected and centrifuged at 1,800 rpm for 3 minutes. The cells in the precipitate were lysed with RIPA (25 mM Tris-HCl pH 7.6, 150 mM NaCl, 1% NP-40, 1% sodium deoxycholate, 0.1% SDS, 1× Protease Inhibitor Cocktail), 5× sample buffer was added, and then heated at 100° C. for 15 minutes. The prepared sample was electrophoresed with sodium dodecyl sulfate poly acrylamide gel electrophoresis (SDS-PAGE), and then the proteins in the gel were transferred to a PVDF membrane using Trans-Blot Turbo. The membrane was treated with a 5% bovine serum albumin (BSA) solution and blocked at room temperature for 2 hours, and then BRD4 and R-actin antibodies were diluted in the 5% BSA solution to react with the membrane at 4° C. overnight. After washed with PBST (0.5% Tween20) 5 times, horse radish peroxidase (HRP)-conjugated secondary antibodies were diluted in PBST to react at room temperature for 2 hours, and then washed again with a PBST solution 5 times. After enzyme-substrate reaction was carried out using a HRP substrate, a signal was measured with chemi-doc equipment, and the densitometry of a band corresponding to the BRD4 protein detected in the Preparation Example Compounds was quantitatively analyzed. The case when the degrading capacity of each BRD4 degrader was reduced by less than 40% is indicated as +, the case when the degrading capacity was reduced by 40% to 70% (exclusive of 70) is indicated as ++, the case when the degrading capacity was reduced by 70% or more is indicated as +++ in Tables 16 to 19 below. As shown in the following Tables, it was confirmed that the compounds of Preparation Examples I′ to IV′ according to the present invention have excellent degrading capacity.

| SMILES | BRD4 degrading capacity (%) |
| --- | --- |
| COC(=O)c1cc(NC(=O)CCNC(=O)C[C@@H]2N=C(c3ccc(Cl)cc3)c3c(sc(C)c3C)-n3c(C)nnc32)ccc1C#CCN.Cl [4-126′, methyl (S)-2-(3-aminoprop-1-yn-1-yl)-5-(3-(2-(4-(4-chlorophenyl)-2,3,9-trimethyl-6H-thieno[3,2-f][1,2,4]triazolo[4,3-a][1,4]diazepin-6-yl)acetamido)propanamido)benzoate hydrochloride] | ++ (the degrading capacity was reduced by 40% to 70% (exclusive of 70)) |
| Cc1sc2c(c1C)C(c1ccc(Cl)cc1)=N[C@@H](CC(=O)NCC#Cc1ccc(C#CCN)cc1)c1nnc(C)n1-2.Cl [4-128′] | ++ (the degrading capacity was reduced by 40% to 70% (exclusive of 70)) |
| Cc1sc2c(c1C)C(c1ccc(Cl)cc1)=N[C@@H](CC(=O)NCC#Cc1cccc(C#CCN)c1)c1nnc(C)n1-2.Cl [4-129′, (S)—N-(3-(3-(3-aminoprop-1-yn-1-yl)phenyl)prop-2-yn-1-yl)-2-(4-(4-chlorophenyl)-2,3,9-trimethyl-6H-thieno[3,2-f][1,2,4]triazolo[4,3-a][1,4]diazepin-6-yl)acetamide hydrochloride] | +++ (the degrading capacity was reduced by 70% or more) |
| Cc1sc2c(c1C)C(c1ccc(Cl)cc1)=N[C@@H](CC(=O)NCCC#Cc1ccc(C#CCCN)o1)c1nnc(C)n1-2.Cl [4-147′, (S)—N-(4-(5-(4-aminobut-1-yn-1-yl)furan-2-yl)but-3-yn-1-yl)-2-(4-(4-chlorophenyl)-2,3,9-trimethyl-6H-thieno[3,2-f][1,2,4]triazolo[4,3-a][1,4]diazepin-6-yl)acetamide hydrochloride] | ++ (the degrading capacity was reduced by 40% to 70% (exclusive of 70)) |
| Cc1sc2c(c1C)C(c1ccc(Cl)cc1)=N[C@@H](CC(=O)NCC#CCNC(=O)c1ccc(C#CCN)o1)c1nnc(C)n1-2.Cl [4-148′, (S)-5-(3-aminoprop-1-yn-1-yl)-N-(4-(2-(4-(4-chlorophenyl)-2,3,9-trimethyl-6H-thieno[3,2-f][1,2,4]triazolo[4,3-a][1,4]diazepin-6-yl)acetamido)but-2-yn-1-yl)furan-2-carboxamide hydrochloride] | + (the degrading capacity of each BRD4 degrader was reduced by less than 40%) |
| Cc1sc2c(c1C)C(c1ccc(Cl)cc1)=N[C@@H](CC(=O)NCCCCNC(=O)c1ccc(C#CCN)o1)c1nnc(C)n1-2.Cl [4-149′] | +++ (the degrading capacity was reduced by 70% or more) |
| Cc1sc2c(c1C)C(c1ccc(Cl)cc1)=N[C@@H](CC(=O)NCCC(=O)Nc1cccc(C#CCN)c1)c1nnc(C)n1-2.Cl [4-161′, (S)—N-(3-(3-aminoprop-1-yn-1-yl)phenyl)-3-(2-(4-(4-chlorophenyl)-2,3,9-trimethyl-6H-thieno[3,2-f][1,2,4]triazolo[4,3-a][1,4]diazepin-6-yl)acetamido)propanamide hydrochloride] | +++ (the degrading capacity was reduced by 70% or more) |
| Cc1sc2c(c1C)C(c1ccc(Cl)cc1)=N[C@@H](CC(=O)NCCCC(=O)Nc1ccc(C#CCN)cc1)c1nnc(C)n1-2.Cl [4-162′, (S)—N-(4-(3-aminoprop-1-yn-1-yl)phenyl)-4-(2-(4-(4-chlorophenyl)-2,3,9-trimethyl-6H-thieno[3,2-f][1,2,4]triazolo[4,3-a][1,4]diazepin-6-yl)acetamido)butanamide hydrochloride] | +++ (the degrading capacity was reduced by 70% or more) |
| Cc1sc2c(c1C)C(c1ccc(Cl)cc1)=N[C@@H](CC(=O)NCCCCC(=O)Nc1ccc(C#CCN)cc1)c1nnc(C)n1-2.Cl [4-163′, (S)—N-(4-(3-aminoprop-1-yn-1-yl)phenyl)-5-(2-(4-(4-chlorophenyl)-2,3,9-trimethyl-6H-thieno[3,2-f][1,2,4]triazolo[4,3-a][1,4]diazepin-6-yl)acetamido)pentanamide hydrochloride] | +++ (the degrading capacity was reduced by 70% or more) |
